Measurements as given in ChEMBL document CHEMBL1201862, “PubChem BioAssay data set” (2004).
The source made the active and inactive calls.

Key:
[1] = biological target: T1, Fatty acid synthase (Homo sapiens, UniProt P49327); assay: inhibition of human FAS-TE enzyme activity – biochemical, kinetic fluorescence intensity, dose response (AID 624326); type: functional;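 further: rate of fluorescence rise from hydrolysis of a fluorogenic O-methyl fluorescein ester substrate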
[2] = Fluorescence-based cell-based high throughput dose response assay for inhibitors of the interaction of nucleotide-binding oligomerization domain containing 2 (NOD2) and the receptor-interacting serine-threonine kinase 2 (RIPK2).; type: functional; details: Homo sapiens
[3] = biological target: T1, Fatty acid synthase; assay: inhibition of human FAS-TE enzyme activity – biochemical, endpoint fluorescence intensity, uHTS hits, dose response (AID 624327); type: functional;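 further: fluorescence from hydrolysis of an O-methyl fluorescein acyl ester substrate by the enzyme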
[4] = biological target: T2, Apoptotic protease-activating factor 1 (Homo sapiens, UniProt O14727); type: functional
T2 sequence (O14727 whole entry): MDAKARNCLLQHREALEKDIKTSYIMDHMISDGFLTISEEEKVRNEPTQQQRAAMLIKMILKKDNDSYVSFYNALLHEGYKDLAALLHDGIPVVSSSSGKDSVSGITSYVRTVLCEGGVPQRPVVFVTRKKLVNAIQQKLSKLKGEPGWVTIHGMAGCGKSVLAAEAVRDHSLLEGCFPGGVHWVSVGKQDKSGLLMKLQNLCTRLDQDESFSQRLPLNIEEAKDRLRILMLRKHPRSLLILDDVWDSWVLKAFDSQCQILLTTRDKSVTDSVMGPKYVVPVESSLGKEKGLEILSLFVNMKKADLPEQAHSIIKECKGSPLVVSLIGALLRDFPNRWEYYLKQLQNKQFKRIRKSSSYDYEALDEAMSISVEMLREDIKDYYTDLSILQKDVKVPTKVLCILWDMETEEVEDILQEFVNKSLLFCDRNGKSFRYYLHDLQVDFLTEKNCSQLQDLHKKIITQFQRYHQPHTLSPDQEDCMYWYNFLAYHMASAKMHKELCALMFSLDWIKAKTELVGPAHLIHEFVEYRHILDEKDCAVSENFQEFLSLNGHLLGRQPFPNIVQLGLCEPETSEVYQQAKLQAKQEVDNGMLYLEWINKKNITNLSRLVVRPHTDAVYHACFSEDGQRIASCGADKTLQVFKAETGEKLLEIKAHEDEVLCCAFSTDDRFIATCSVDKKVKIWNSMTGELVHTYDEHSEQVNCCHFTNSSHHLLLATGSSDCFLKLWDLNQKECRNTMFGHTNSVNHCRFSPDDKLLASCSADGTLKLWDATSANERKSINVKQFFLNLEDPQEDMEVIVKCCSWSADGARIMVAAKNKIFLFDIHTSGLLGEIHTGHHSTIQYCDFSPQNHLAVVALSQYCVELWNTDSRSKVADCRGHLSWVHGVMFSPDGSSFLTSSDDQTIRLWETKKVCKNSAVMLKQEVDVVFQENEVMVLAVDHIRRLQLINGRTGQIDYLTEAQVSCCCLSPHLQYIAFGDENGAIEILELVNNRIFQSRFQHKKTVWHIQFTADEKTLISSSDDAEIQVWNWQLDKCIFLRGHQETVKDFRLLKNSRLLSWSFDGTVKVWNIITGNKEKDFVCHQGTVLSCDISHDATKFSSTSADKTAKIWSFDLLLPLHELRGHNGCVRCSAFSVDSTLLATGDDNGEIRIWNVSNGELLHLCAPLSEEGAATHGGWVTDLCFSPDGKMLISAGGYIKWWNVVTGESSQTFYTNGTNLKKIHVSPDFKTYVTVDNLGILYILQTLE

[5] = biological target: Arf-GAP with SH3 domain, ANK repeat and PH domain-containing protein 1 (Homo sapiens, UniProt Q9ULH1); type: functional;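 further: biochemical fluorescence polarization dose–response screen measuring inhibition of ASAP1; ASAP1 GAP domain stimulating GTP hydrolysis by truncated human ARF1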
Arf-GAP with SH3 domain, ANK repeat and PH domain-containing protein 1, sequence (Q9ULH1 whole entry, the tested form may be a part): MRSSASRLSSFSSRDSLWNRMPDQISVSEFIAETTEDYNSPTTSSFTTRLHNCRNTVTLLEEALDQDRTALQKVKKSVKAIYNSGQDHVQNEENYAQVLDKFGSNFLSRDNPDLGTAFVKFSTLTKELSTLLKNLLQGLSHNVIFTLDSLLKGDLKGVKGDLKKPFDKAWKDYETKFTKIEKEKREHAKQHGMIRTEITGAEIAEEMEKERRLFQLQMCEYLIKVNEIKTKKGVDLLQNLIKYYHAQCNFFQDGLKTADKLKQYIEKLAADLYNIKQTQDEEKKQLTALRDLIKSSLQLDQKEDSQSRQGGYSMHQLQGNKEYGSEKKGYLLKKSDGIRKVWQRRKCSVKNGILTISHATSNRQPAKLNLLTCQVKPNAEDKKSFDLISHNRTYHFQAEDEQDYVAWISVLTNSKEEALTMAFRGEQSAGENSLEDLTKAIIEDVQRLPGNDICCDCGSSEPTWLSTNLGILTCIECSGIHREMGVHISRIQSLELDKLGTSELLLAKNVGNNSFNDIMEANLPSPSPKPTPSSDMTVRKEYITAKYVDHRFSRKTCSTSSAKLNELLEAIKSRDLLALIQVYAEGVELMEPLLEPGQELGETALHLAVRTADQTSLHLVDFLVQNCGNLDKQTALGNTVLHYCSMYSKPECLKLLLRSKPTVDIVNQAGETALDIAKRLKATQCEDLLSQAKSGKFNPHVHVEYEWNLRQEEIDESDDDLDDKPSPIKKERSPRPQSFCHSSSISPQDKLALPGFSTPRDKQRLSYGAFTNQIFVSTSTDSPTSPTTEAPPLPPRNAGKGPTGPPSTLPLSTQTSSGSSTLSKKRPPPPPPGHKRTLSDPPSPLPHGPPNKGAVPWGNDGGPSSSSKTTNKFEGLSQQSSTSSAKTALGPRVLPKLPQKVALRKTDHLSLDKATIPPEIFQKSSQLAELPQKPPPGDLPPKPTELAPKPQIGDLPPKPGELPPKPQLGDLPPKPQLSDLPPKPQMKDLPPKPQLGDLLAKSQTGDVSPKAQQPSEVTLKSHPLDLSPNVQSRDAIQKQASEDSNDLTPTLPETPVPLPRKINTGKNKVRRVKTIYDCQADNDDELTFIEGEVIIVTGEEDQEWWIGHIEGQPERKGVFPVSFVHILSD

[6] = biological target: T3, Interleukin-8 (Homo sapiens, UniProt P10145); assay: Dose Response confirmation of uHTS small molecule hits for cystic fibrosis induced NFkb Inhibitors in a PAF-induced IL8 counterscreen.; type: functional; details: read-out: IC50_Mean
T3 sequence (P10145 whole entry): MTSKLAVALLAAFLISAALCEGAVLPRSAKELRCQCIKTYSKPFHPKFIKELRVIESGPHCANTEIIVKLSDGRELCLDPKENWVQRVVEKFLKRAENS

[7] = biological target: T4, Insulin-degrading enzyme (Homo sapiens, UniProt P14735); assay: recombinant IDE activation, cell-free – biochemical, fluorescence polarization, counter-screen for IDE activator project, dose response (AID 588681)
T4 sequence (P14735 whole entry): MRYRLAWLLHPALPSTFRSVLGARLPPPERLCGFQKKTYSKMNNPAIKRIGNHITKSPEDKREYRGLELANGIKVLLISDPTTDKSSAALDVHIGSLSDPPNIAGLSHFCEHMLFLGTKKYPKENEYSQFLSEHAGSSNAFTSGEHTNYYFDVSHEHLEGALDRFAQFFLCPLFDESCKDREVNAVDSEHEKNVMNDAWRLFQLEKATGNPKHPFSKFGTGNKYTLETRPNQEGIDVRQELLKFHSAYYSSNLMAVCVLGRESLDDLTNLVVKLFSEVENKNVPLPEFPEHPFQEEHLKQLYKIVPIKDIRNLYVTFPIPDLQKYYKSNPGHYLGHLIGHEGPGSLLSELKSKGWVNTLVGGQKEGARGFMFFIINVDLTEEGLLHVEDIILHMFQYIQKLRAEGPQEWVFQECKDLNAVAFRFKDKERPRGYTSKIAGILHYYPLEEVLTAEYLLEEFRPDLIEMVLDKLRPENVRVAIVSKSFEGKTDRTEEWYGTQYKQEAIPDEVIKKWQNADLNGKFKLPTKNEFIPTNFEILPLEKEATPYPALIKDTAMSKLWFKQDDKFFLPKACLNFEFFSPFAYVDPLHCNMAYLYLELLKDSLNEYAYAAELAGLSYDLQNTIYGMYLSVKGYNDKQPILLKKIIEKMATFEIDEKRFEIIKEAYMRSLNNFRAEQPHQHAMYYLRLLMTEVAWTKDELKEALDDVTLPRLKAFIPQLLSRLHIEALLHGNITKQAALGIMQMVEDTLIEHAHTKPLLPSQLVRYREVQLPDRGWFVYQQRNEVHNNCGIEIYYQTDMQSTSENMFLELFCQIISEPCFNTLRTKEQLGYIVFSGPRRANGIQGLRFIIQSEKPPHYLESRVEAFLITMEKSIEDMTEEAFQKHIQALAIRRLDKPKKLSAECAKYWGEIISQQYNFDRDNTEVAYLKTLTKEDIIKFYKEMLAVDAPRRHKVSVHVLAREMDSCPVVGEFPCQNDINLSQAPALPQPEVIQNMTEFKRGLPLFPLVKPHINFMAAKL

[8] = biological target: T4, Insulin-degrading enzyme; assay: cellular IDE activation of Abeta substrate cleavage – fluorescence polarization, HEK cells, dose response (AID 588439); type: functional, cell-based
[9] = system: HEK293; assay: membrane integrity loss in HEK cells – cell-based, fluorescence, cytotoxicity control for IDE activator project, dose response (AID 588440); type: functional; details: Homo sapiens;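 further: cytotoxicity by LDH release measuring loss of membrane integrity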
[10] = system: HEK293; assay: optical interference in Abeta FP readout, dose response, artefact control for IDE activator project, biochemical, fluorescence polarization (AID 588442); type: functional, cell-based; details: Homo sapiens
[11] = biological target: Adenosylmethionine-8-amino-7-oxononanoate aminotransferase (Mycobacterium tuberculosis, UniProt P9WQ81); assay: Mycobacterium tuberculosis BioA enzyme inhibitor Measured in Biochemical System Using Plate Reader - 2163-02_Inhibitor_Dose_CherryPick_Activity.; type: functional, Mycobacterium tuberculosis UT205
Adenosylmethionine-8-amino-7-oxononanoate aminotransferase, sequence (P9WQ81 whole entry): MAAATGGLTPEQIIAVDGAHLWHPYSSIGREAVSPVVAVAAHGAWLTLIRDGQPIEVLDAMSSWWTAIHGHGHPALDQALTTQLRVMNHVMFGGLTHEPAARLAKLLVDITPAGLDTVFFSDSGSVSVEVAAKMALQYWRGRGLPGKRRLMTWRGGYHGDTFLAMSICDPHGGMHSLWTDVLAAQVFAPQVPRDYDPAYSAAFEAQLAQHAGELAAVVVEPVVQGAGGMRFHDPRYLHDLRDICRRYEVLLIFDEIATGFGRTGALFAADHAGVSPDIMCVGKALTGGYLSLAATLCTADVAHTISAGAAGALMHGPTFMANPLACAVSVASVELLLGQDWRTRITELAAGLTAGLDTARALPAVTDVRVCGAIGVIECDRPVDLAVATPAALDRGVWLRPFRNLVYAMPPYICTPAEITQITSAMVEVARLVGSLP

[12] = biological target: T5, Streptokinase A (Streptococcus pyogenes serotype M1, UniProt P10520); assay: viability-normalized secreted streptokinase activity reduction – plasminogen activation absorbance, OD405, dose response (AID 1914); type: functional, Streptococcus pyogenes M1 GAS;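 further: secreted streptokinase activity via plasminogen activation per viability signal from cell pellet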
T5 sequence (P10520 whole entry): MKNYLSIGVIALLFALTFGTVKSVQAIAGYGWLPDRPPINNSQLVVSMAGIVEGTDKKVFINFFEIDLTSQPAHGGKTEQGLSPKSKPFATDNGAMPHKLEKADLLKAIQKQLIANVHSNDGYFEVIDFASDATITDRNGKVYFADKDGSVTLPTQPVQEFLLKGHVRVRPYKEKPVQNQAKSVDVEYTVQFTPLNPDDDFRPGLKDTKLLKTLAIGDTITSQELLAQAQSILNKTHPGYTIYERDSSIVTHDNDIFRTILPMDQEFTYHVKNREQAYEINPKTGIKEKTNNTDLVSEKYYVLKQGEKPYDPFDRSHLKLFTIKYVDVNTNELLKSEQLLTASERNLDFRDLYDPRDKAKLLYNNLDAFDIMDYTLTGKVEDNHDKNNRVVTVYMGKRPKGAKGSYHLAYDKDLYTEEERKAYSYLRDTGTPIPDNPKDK

[13] = system: Streptococcus; assay: GAS UMAA2166 growth inhibition – luminescence, BacTiterGlo, counter-screen for streptokinase expression inhibitor project, dose response (AID 1915); type: functional, organism-based;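 further: potency for reduction of bacterial viability or growth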
[14] = Luminescence Cell-Based Dose Retest to Confirm Inhibitors of Cancer Stem Cells. [Related pubchem assays (depositor defined):AID2717, AID2721]; type: functional; details: Homo sapiens
[15] = system: Streptococcus sp. 'group A'; assay: Streptococcus pyogenes SK(-)GAS viability under kanamycin – luminescence, BacTiterGlo, confirmation, counter-screen for streptokinase expression inhibitor project, dose response (AID 1900); type: functional, organism-based
[16] = biological target: T6, DNA repair and recombination protein RAD54-like (Homo sapiens, UniProt Q92698); assay: RAD54 Holliday junction migration blockers – biochemical, fluorescence, cherry-picked samples, dose series, confirmation (AID 651657); type: functional
T6 sequence (Q92698 whole entry): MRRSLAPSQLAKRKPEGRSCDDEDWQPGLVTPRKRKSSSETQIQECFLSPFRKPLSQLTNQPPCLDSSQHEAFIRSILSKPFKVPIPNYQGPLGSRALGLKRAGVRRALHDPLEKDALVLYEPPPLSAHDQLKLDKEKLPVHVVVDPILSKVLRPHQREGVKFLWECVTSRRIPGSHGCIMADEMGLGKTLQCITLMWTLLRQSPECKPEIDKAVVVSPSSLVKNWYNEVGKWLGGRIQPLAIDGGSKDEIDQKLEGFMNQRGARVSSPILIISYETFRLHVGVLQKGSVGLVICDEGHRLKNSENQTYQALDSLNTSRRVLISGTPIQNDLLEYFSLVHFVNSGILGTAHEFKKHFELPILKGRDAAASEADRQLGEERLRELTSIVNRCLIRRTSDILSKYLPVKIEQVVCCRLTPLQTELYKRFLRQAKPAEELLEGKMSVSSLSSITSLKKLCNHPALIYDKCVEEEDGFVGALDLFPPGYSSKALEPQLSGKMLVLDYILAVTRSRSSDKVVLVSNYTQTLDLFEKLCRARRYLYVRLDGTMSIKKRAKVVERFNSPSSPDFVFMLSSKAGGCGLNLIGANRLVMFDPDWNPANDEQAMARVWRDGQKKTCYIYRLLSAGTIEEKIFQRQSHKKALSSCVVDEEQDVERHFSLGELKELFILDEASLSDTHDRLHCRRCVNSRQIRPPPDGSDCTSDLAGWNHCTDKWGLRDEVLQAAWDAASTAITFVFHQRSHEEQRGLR

[17] = biological target: T7, Sentrin-specific protease 1 (Homo sapiens, UniProt Q9P0U3); assay: Dose response confirmation of small molecule inhibitors of the catalytic domain of the SUMO protease, SENP1 in a FRET assay.; type: functional; details: read-out: IC50_Mean
T7 sequence (Q9P0U3 whole entry): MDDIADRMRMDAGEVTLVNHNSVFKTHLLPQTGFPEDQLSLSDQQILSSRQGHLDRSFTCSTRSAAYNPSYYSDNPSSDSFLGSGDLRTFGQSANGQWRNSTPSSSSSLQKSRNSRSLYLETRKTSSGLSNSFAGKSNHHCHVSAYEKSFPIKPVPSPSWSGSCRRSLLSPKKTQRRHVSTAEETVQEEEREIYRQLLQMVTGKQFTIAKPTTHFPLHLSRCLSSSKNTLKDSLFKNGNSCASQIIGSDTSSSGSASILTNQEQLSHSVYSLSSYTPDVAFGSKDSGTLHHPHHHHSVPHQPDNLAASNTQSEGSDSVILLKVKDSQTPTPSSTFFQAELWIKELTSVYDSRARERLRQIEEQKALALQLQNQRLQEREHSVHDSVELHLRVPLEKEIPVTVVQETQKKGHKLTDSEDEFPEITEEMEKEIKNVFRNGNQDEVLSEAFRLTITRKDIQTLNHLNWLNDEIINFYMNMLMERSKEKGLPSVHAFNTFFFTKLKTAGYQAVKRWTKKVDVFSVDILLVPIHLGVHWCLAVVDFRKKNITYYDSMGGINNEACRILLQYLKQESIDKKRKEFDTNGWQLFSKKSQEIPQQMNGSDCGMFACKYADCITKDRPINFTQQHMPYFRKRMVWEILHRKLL

[18] = biological target: T7, Sentrin-specific protease 1; assay: SENP1 catalytic domain blockers, concentration series – biochemical, kinetic FRET, dose response (AID 651697); type: functional; details: read-out: IC50_Mean

T1 sequence (P49327 whole entry, the tested form may be a part): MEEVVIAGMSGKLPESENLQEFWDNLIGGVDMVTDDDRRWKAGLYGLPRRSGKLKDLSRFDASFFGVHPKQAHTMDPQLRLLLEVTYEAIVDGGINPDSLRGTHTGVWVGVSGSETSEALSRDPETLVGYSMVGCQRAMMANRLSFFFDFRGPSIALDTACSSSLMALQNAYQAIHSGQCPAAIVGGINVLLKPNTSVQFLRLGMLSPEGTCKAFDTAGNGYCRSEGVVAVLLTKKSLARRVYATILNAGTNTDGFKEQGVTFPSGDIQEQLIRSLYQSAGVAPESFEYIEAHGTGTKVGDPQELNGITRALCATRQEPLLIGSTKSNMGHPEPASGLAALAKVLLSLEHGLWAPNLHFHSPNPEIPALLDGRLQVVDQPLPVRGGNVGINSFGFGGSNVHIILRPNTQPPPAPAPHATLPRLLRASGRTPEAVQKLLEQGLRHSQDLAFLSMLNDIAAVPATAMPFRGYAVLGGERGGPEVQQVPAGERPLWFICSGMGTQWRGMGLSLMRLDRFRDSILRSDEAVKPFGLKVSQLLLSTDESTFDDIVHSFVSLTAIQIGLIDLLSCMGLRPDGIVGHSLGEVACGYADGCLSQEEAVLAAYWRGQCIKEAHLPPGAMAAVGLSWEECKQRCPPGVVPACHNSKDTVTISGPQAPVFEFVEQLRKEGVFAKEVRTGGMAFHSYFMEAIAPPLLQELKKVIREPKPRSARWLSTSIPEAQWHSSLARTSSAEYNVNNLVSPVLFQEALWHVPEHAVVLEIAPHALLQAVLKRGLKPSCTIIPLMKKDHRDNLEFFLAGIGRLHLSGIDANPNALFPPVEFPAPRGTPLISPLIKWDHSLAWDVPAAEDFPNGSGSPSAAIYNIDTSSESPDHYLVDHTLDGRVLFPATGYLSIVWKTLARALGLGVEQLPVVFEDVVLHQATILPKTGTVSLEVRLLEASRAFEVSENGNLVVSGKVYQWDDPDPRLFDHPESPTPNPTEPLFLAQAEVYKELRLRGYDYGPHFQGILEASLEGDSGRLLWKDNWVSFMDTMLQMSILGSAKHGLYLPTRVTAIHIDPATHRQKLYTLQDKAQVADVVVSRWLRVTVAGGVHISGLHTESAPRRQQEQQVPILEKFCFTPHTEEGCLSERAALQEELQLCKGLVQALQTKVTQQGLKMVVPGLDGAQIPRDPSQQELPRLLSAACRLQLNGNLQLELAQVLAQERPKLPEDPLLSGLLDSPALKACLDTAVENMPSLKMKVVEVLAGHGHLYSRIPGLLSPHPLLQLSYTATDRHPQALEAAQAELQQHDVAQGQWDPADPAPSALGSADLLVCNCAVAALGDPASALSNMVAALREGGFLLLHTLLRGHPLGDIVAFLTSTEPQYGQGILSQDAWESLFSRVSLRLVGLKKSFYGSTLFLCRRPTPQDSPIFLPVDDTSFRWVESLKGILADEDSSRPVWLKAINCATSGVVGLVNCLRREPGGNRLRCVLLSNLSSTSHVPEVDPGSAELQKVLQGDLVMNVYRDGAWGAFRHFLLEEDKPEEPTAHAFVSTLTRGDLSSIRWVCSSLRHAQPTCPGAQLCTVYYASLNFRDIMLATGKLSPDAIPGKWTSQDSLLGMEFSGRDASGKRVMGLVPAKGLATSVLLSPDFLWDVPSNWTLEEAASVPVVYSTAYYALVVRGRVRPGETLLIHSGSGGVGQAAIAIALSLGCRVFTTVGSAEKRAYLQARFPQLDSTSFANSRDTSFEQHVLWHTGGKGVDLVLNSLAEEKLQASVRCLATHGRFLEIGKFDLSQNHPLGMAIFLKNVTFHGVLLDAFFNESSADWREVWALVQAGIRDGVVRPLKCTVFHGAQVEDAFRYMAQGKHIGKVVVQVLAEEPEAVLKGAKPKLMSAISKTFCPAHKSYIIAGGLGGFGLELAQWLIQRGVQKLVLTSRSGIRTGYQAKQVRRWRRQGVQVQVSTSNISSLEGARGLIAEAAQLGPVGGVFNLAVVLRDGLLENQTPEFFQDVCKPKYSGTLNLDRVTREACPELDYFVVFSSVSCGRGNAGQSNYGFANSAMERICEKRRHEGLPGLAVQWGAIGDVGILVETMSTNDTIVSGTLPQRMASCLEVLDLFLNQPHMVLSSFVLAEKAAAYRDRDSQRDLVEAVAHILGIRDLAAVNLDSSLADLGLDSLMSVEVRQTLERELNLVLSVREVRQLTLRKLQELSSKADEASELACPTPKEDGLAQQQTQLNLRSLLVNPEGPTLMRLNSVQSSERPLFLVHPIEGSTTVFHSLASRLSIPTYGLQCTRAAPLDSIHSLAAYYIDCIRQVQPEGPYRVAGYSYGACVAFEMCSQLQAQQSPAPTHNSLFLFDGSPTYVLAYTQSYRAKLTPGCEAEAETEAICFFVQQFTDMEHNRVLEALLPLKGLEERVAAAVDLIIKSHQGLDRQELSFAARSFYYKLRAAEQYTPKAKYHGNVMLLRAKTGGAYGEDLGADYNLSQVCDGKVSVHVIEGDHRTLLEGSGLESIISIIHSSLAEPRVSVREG

SMILES: CCOC(=O)[C@]12Cc3cc(OC)ccc3[C@H]1N(C1CCCCC1)C(=O)c1ccccc12
- IC50 [1]: 6.5 µM (active)
- IC50 [2]: 2.5 µM (active)
- IC50 [3]: 8.86 µM (active)

SMILES: CCCN(CC(=O)Nc1ccccc1C)C(=O)CCCOc1ccc(Br)cc1
- IC50 [4]: > 100 µM (inactive)

SMILES: O=C(CSc1ccccc1)Nc1ccc(-c2nc3ccccc3[nH]2)cc1
- IC50 [5]: 14.7 µM (inactive)

SMILES: Cc1c(-c2ccccc2)oc2c(C(=O)N3CCN(c4ccc([N+](=O)[O-])cc4)CC3)cccc2c1=O
- IC50 [6]: 40.2 µM (inactive)

SMILES: CSc1ccccc1OCc1cc(C(=O)NCCn2nc(C)cc2C)no1
- EC50 [7]: > 54.7 µM (inactive)
- EC50 [8]: > 54.7 µM (inactive)
- IC50 [9]: > 89.2 µM (inactive)
- EC50 [10]: > 54.7 µM (inactive)

SMILES: Cc1nc2nc(SCC(=O)N3CCOCC3)nn2c(C)c1Cc1ccccc1
- AC50 [11]: 0.43 µM (active)

SMILES: CC(C)=CCCC1(C)C=Cc2c(c(C)cc3c2[nH]c2cc(O)ccc23)O1 (stereo unspecified)
- EC50 [12]: > 150 µM (not active)
- EC50 [7]: > 54.7 µM (inactive)
- EC50 [13]: 5.07 µM (active)
- EC50 [8]: 41 µM (inactive)
- AC50 [14]: 5.38 µM (active)
- IC50 [9]: 15.3 µM (inactive)
- EC50 [10]: > 55.9 µM (inactive)
- EC50 [15]: 2.61 µM (active)

SMILES: COc1cccc2c1-c1c(O)cccc1C2=O
- AC50 [16]: 66.7 µM (active)
- IC50 [17]: 18.6 µM (active)
- IC50 [18]: 37.7 µM (inactive)

SMILES: CN1CCN(C2=Nc3c(Cl)cc(Cl)c4cccc2c34)CC1
- IC50 [17]: 10.2 µM (active)
- IC50 [18]: 6.95 µM (active)

SMILES: O=C(N/N=C/c1cccnc1)c1cc2c(ccc3ccccc32)o1
- IC50 [5]: 19.9 µM (inactive)

SMILES: C/C=C/c1ccc2c(c1)O[C@@H](CN(C)C(=O)Nc1ccc(OC)cc1)[C@@H](C)CN([C@@H](C)CO)S2(=O)=O
- AC50 [11]: 2.08 µM (active)
